Data from US8076297B2, “Pharmaceutical composition containing polypeptide fragments of serralysins” (Centro De Ingenieria Genetica Y Biotecnologia, priority 2004, dated 2011).

The compounds below were run on HEp-2 cells (assay: Anti-proliferative assay on HEp-2 cells, MTT method). Conditions: 3 μg/mL.
Assay type: cell-based, human
Procedure: For the characterization of the antiproliferative activity of MG2327 “in vitro” a panel of human cell lines was evaluated (table 1). A total of 2000 cells, except for PBMC (20000), were seeded in 96 wells culture wells, and different concentrations of MG2327 were added. After 72 hours, the number of survival cells was estimated by addition of MTT (Skehan, P., Storeng, R., Scudiero, D., Monks, A., Mcmahon, J., Vistica, D., Warren, J. T., Bokesch, H., Kenney, S. and BOYD, M. R. 1990. J Natl Cancer Inst. 82:1107). The soluble formazan products were detected at 540 nm in a multiscan plate reader.

Compound	proliferation [%]
N.N.[Cl][Pt][Cl] [Cisplatin, reference compound]	40
COc1cccc2c1C(=O)c1c(O)c3c(c(O)c1C2=O)C[C@@](O)(C(=O)CO)C[C@@H]3O[C@H]1C[C@H](N)[C@H](O)[C@H](C)O1 [DXR, Doxorubicine, reference compound]	40
CC(=O)O[C@H]1C(=O)[C@@]2(C)[C@H]([C@H](OC(=O)c3ccccc3)[C@]3(O)C[C@H](OC(=O)[C@H](O)[C@@H](NC(=O)c4ccccc4)c4ccccc4)C(C)=C1C3(C)C)[C@]1(OC(C)=O)CO[C@@H]1C[C@@H]2O [Taxol, reference compound]	40
CC[C@]1(O)C[C@H]2CN(CCc3c([nH]c4ccccc34)[C@@](C(=O)OC)(c3cc4c(cc3OC)N(C=O)[C@H]3[C@@](O)(C(=O)OC)[C@H](OC(C)=O)[C@]5(CC)C=CCN6CC[C@]43[C@@H]65)C2)C1 [Vincristine, reference compound]	40
CC[C@]1(O)C[C@@H]2CN(CCc3c([nH]c4ccccc34)[C@@](C(=O)OC)(c3cc4c(cc3OC)N(C)[C@H]3[C@@](O)(C(=O)OC)[C@H](OC(C)=O)[C@]5(CC)C=CCN6CC[C@]43[C@@H]65)C2)C1 [Vinvlastine, reference compound]	40

Same assay, conditions: same conditions as 3 μg/mL comparison

Compound	effect on proliferation
Nc1ccn([C@@H]2O[C@H](CO)[C@@H](O)[C@@H]2O)c(=O)n1 [Ara C, reference compound]	do not showed effect
O=P1(N(CCCl)CCCl)NCCCO1 (stereo not drawn) [Ciclophosfamide, reference compound]	do not showed effect
CN(Cc1cnc2nc(N)nc(N)c2n1)c1ccc(C(=O)N[C@@H](CCC(=O)O)C(=O)O)cc1 [Metotrexate, reference compound]	do not showed effect
Bleomicine [reference compound]	do not showed effect
